In article PMC4657899, “Design, Synthesis and In Vitro Activity of Anticancer Styrylquinolines. The p53 Independent Mechanism of Action” (PLoS ONE, 2015):

How the values were obtained:
HCT116 (p53+/+) = assay: MTS anti-proliferative assay, HCT116 (p53+/+); format: cell-based, human; conditions: mean ± SD
Experimental: (§1) The human colon adenocarcinoma cell line HCT116 along with wild type p53 (p53^+/+) were obtained from the ATCC. The normal human fibroblast cell line GM 07492 and HCT116 with a p53 deletion (p53^-/-) were kindly provided by prof. M. Rusin from Maria Sklodowska-Curie Memorial Cancer Center and Institute of Oncology in Gliwice, Poland. Cells were grown as monolayer cultures in 75 cm^2 flasks (Nunc) in Dulbecco’s modified Eagle’s medium with an antibiotic gentamicin (200 μL/100 mL medium). DMEM for HCT116 were supplemented with 12% heat-inactivated fetal bovine serum (Gibco) and for GM 07492 with 15% fetal bovine serum (Gibco). Cells were cultured under standard conditions at 37°C in a humidified atmosphere at 5% CO2.
(§2) The cells were seeded in 96-well plates 24 h before the addition of the compounds that were tested. The assay was performed following a 72 h incubation with varying concentrations of the agents that were tested. The results were calculated as IC50 values (using GraphPad Prism 5). Each individual compound was tested in triplicate in a single experiment with each experiment being repeated three times. After a 72 h incubation with the compounds that were tested, 20 μL of The CellTiter 96®AQueous One Solution—MTS (Promega) solution was added to each well (with 100 μL DMEM without phenol red) and incubated for 1 h at 37°C. The optical densities of the samples were analyzed at 490 nm. Results were expressed as a percentage of the control.

HCT116 (p53-/-) = assay: MTS anti-proliferative assay, HCT116 (p53-/-); format: cell-based, human; conditions: MTS, 72 h incubation, mean ± SD
Experimental: as §1, §2

GM 07492 = assay: MTS cytotoxicity assay, normal fibroblasts GM 07492; format: cell-based; conditions: 72 h incubation, normal human fibroblasts, mean ± SD
Experimental: as §1, §2

HCT116 +/+ = assay: Trypan blue staining test, HCT116 +/+; format: cell-based, human; conditions: Homo sapiens, HCT-116; S2 Table, trypan blue cell counting, 72 h
Experimental: (§3) The cells were seeded in 3 cm Petri dishes (Nunc) and incubated at 37°C. After 24h, solutions […]
(§4) a 72 h incubation with tested compounds, the cells were trypsinize d with 0.05% Trypsin -EDTA solution (Sigma). Then, 90µl of suspension cells transferred into 96 -well plate containing 10µl Trypan blue reagent in wells. The cells were counted under an optical inverted microscope Olympus CKX31. The results from three independent experiment were calculated as IC 50 values using GraphPad Prism 5 software.

HCT116 -/- = assay: Trypan blue staining test, HCT116 -/-; format: cell-based, human; conditions: Homo sapiens, HCT-116; S2 Table, trypan blue cell counting, 72 h
Experimental: as §3, §4

Calf-thymus DNA (CT-DNA) = assay: Spectrophotometric DNA binding (intercalation) study with CT-DNA; conditions: for % hypochromism / Δε / shift of the wavelength of maximum absorption, alone vs DNA-bound: 18 μM CT-DNA; for % hypochromism: 1.5 h 37°C, Tris-HCl pH 7.9; for % hypochromism / Δε: at the (first) absorption band (CP-31398: 312); for shift of the wavelength of maximum absorption, alone vs DNA-bound / Changes in absorbance: S3 Table; for Changes in absorbance: with CT-DNA
Experimental: For the DNA binding studies, Calf-thymus DNA (CT-DNA) was purchased from Sigma Aldrich. The lyophilized CT-DNA was dissolved in 10 mM Tris-HCl, pH 7.9, mixed gently and left overnight at 4°C. Then, the concentration of CT-DNA was determined from the absorbance at 260 nm using an extinction coefficient of 6600 M^-1cm^-1. […] Afterwards, 18 μM CT-DNA was added to the prepared solutions and were incubated for 1.5 h at 37°C with occasional vortexing. Absorption spectra were measured using a Hitachi U-2900 spectrophotometer in range of 200–600 nm. All absorption spectra were imported and compared in OriginPro 8.0.

PARP in HCT-116 cells = assay: Immunoblotting, PARP cleavage; format: cell-based, human; conditions: 0, 10, 20, 40 μM
Experimental: Specific antibodies were purchased from Sigma-Aldrich (anti-PARP, anti-tubulin and peroxidase-labeled secondary antibodies). Briefly, cellular lysates were prepared by harvesting cells in a Laemmli sample buffer. Proteins were separated on SDS-polyacrylamide gels and electroblotted onto nitrocellulose membranes. After blocking, the membranes were incubated with specific primary antibodies overnight, washed and then incubated with peroxidase-conjugated secondary antibodies. Finally, peroxidase activity was detected with ECL+ reagents (AP Biotech) using a CCD camera LAS-4000 (Fujifilm).

P388 cell line = system: P388 cell line; design: method as in PMID 17904844; conditions: cited from earlier work
[1] = Homo sapiens, HCT-116, 72 h incubation

Row | SMILES | melting point | IC50 (HCT116 (p53+/+); [1]) | IC50 (HCT116 (p53-/-); Homo sapiens, HCT-116) | IC50 (GM 07492; Fibroblast) | also measured
1 | Oc1c(Cl)cc(Cl)c2ccc(C=Cc3ccccc3Cl)nc12 [2c, 5,7-Dichloro-2 – [2-(2-chlorophenyl)vinyl]quinolin-8-ol] | 205 to 210 °C | – | – | – | –
2 | COc1cccc2c1C(=O)c1c(O)c3c(c(O)c1C2=O)C[C@@](O)(C(=O)CO)C[C@@H]3O[C@H]1C[C@H](N)[C@H](O)[C@H](C)O1 [Doxorubicin] | – | 5.95 ± 0.5 µM | 1.65 ± 0.21 µM | 3.38 ± 1.29 µM | IC50 (HCT116 +/+): 2.83 µM; IC50 (HCT116 -/-): 1.28 µM; % hypochromism (Calf-thymus DNA (CT-DNA)): 34.2%; % hypochromism (Calf-thymus DNA (CT-DNA); listed as DOX): 34,2%; Δε (Calf-thymus DNA (CT-DNA)): 3235,6 M−1 cm−1; shift of the wavelength of maximum absorption, alone vs DNA-bound (Calf-thymus DNA (CT-DNA)): 10; Changes in absorbance (Calf-thymus DNA (CT-DNA)): hypochromism; shift in the wavelength on DNA binding (Calf-thymus DNA (CT-DNA); blue shift for 5b, 6b, red shift for doxorubicin): 10 nm
3 | CC(=O)Oc1ccccc1C=Cc1ccc2cccc(O)c2n1 [3b] | – | – | – | – | IC50 (HCT116 (p53+/+); 72 h incubation): 7.32 ± 1.01 µM; IC50 (HCT116 (p53-/-)): 13.5 ± 0.81 µM; IC50 (GM 07492): > 25 µM
4 | CCOc1ccccc1C=Cc1ccc2cccc(O)c2n1 [15b, 2 – [2-(2-Ethoxyphenyl)vinyl]quinolin-8-ol] | 100 °C | 15.8 ± 3.32 µM | 12.8 ± 3.53 µM | – | –
5 | CC(=O)Oc1ccc(C=Cc2ccc3cccc(OC(C)=O)c3n2)c(OC(C)=O)c1 [8b] | – | – | – | – | IC50 (HCT116 (p53+/+); 72 h incubation): > 25 µM; IC50 (HCT116 (p53-/-)): > 25 µM
6 | CC(=O)Oc1ccc(C=Cc2ccc3cccc(OC(C)=O)c3n2)c(OC(C)=O)c1OC(C)=O [14b] | 194 °C | 17.9 ± 1.67 µM | 11.4 ± 1.02 µM | – | –
7 | COc1cc(C=Cc2ccc3cccc(O)c3n2)cc(OC(C)=O)c1OC(C)=O [7b] | 172 °C | > 25 µM | > 25 µM | – | –
8 | CCOc1ccccc1C=Cc1ccc2c(Cl)cc(Cl)c(O)c2n1 [1c, 5,7-Dichloro-2 – [2-(2-ethoxyphenyl)vinyl]quinolin-8-ol] | 100 to 102 °C | 5.93 ± 0.97 µM | 3.25 ± 1.81 µM | > 25 µM | –
9 | CC(=O)Oc1cccc(C=Cc2ccc3cccc(O)c3n2)c1 [4b] | – | – | – | – | IC50 (HCT116 (p53+/+); 72 h incubation): 7.88 ± 1.98 µM; IC50 (HCT116 (p53-/-)): 10.7 ± 3.76 µM; IC50 (GM 07492): > 25 µM
10 | CCOc1ccc(C=Cc2ccc3c(Cl)cc(Cl)c(O)c3n2)cc1 [3c, 5,7-Dichloro-2 – [2-(4-ethoxyphenyl)vinyl]quinolin-8-ol] | 156 to 158 °C | 2.23 µM | 3.53 ± 0.83 µM | > 25 µM | % hypochromism (Calf-thymus DNA (CT-DNA)): 11,6%; Δε (Calf-thymus DNA (CT-DNA)): 557,8 M−1 cm−1; shift of the wavelength of maximum absorption, alone vs DNA-bound (Calf-thymus DNA (CT-DNA)): 8; Changes in absorbance (Calf-thymus DNA (CT-DNA)): hypochromism
11 | Cc1ccc2c(n1)C(=O)C(NC(=O)/C=C/c1ccccc1)=CC2=O [IV] | – | – | – | – | IC50 (P388 cell line): 1.44 µM

The next lines start with results.

Row | melting point | IC50 (HCT116 (p53+/+); [1]) | IC50 (HCT116 (p53-/-); Homo sapiens, HCT-116) | SMILES | IC50 (GM 07492; Fibroblast) | also measured
12 | – | 9.84 ± 1.79 µM | 7.97 ± 3.24 µM | Oc1cccc2ccc(C=Cc3ccccc3Cl)nc12 [17b, 2 – [2-(2-Chlorophenyl)vinyl]quinolin-8-ol] | 20.2 ± 6.52 µM | PARP cleavage (PARP in HCT-116 cells): clearly observable
13 | 316 °C | 16.1 ± 0.88 µM | 15.2 ± 1.31 µM | Oc1ccccc1C=Cc1ccc2cccc(O)c2n1 [18b, 2 – [2-(2-Hydroxyphenyl)vinyl]quinolin-8-ol] | – | –
14 | – | 24.6 ± 4.36 µM | 18.4 ± 1.36 µM | COc1cccc(C=Cc2ccc3cccc(O)c3n2)c1 [13b] | > 25 µM | –
